From patent US5696229A, “Polypeptide with laminin cell adhesion and morphogenesis activity” (The University of Virginia Patent Foundation, priority 1995, dated 1997)
Values belong to the molecule of their own block, whether it stands above or below them. Peptide text beside a SMILES is read from it.

Columns and labels:
[1] = test system: HT1080 human fibrosarcoma cells; assay: Cell adhesion studies, HT1080 cells on coated plates (Example 1); type: cell-based
Method: (§1) Plates coated overnight (4° C.) with equimolar amounts of laminin, laminin fragment, or synthetic peptide were blocked with 1% BSA (Sigma Chemical Co.) for 4 h (4° C.) and cells were subsequently added (2×10^4 /well) in serum-free media and incubated for 60 min (37° C.) according to the method of Aumailey and Timpl (1986). Inhibition studies were carried out by preincubating cells for 30 min (37°; gentle agitation every 5 min) with equimolar amounts of soluble fragment or peptide. Cells, together with soluble inhibitor, were then added to the coated plates. After a 60-min (37° C.) incubation, plates were washed twice with PBX, fixed with 1% glutarldehyde (Electron Microscopy Service Laboratories, Westmount, N.J.), PBS, washed, stained with 0.1% crystal violet (Serra Biochemicals, Hauppauge, N.Y.), washed twice with distilled water, solubilized in 0.5% Triton X-100 (Sigma Chemical Co.), and read on an ELISA plate reader (Molecular Devices Corp., Menio Park, Calif.) equipped with a 595-nm filter.

type II alveolar cells [2] = type: cell-based, rat; conditions: for Area: Table II, laminin A chain synthetic peptide preincubated with cells before plating on BMS, None = 108 ± 23; for Inhibition of alveolar formation by soluble laminin fragment or peptide: preincubated with cells prior to plating on BMS, day five; for Area (of cellular structures): cells plated on 1.8 mg/cm^2 gelled protein substrate, 5 d, mean ± SD, alveoli defined as > 20 × 10^3 um^2; for Alveolar formation on substrate: cells plated on equal milligram amounts of gelled substrate
Excerpt: Type II alveolar cells were isolated from 250-g Sprague Dawley rats (Hilltop Laboratory Animals, Inc.) according to the method of Rannels (Rannels and Rannels, 1988). Briefly, an initial cardiac perfusion with 0.9% saline was followed by instillation of the airways with 0.1% elastase (Calbiochem Corp., La Jolla, Calif.) in Joklik's modified minimal medium (JMEM) containing 0.05% BaSO4. Elastase was inactivated by instillation of JMEM containing soybean trypsin inhibitor (0.08%; Sigma Chemical Co., St. Louis, Mo.), DNase (0.08%. Sigman Chemical Co.), and 50% newborn calf serum (GIBCO BRL, Gaithersburg, Md.). Lung tissue was minced, vortexed, and filtered through 160-μm nylon mesh (Tetko, Elmsford, N.Y.). Released cells were centrifuged for 10 min at 500 g, resuspended in JMEM containing 0.08% DNAse, and layered on a Percoll (Pharmacia Fine Chemicals) discontinuous density gradient. After centrifugation for 20 min (4° C.) , cells were collected at the 1.04/1.08 interface, washed in JMEM, brought up in DME containing 10% fetal bovine serum (FBS) (GIBCO BRL), and incubated for 30 min (37° C.) in 75-cm^2 tissue culture flasks to eliminate contaminating macrophage cells which rapidly adhere to the plastic surface. The resultant type II alveolar cell preparations were 95% viable as determined by trypan blue exclusion; purity was 93% as assessed by the presence of lamellar bodies visible with Hoffman optics at a magnification of 40 and by tannic acid staining. Analysis of total cellular DNA/well on each day of an experiment was performed in triplicate on trypsin/disease released cells using a DNA fluorometry assay (Labarca and Paigen, 1980).
Freshly isolated type II alveolar cells were plated in 96-well plates at 20×10^3 cells/well on 500 μg/well (1.8 mg/cm^2) of gelled BMS of collagen I. Cells were cultured over 5 d with on media change performed on day three. Alveolar formation was analyzed at 24-h intervals over 5 d from photographic negatives (4×original magnification of central portion of each well) of triplicate wells. Images from negatives were transferred via video camera to an Image I imaging system (Universal Imaging Corp., West Chester, Pa.) and viewed on a color video monitor. The area of cellular structures was then determined and expressed as the mean±standard deviation. In some cases two size categories were distinguished: (a) single cells (200-300 μm^2) and (b) model alveoli (20×10^3 μm^2 or greater) with data expressed as percent of area occupied by each category.
(§2) In alveolar inhibition studies, antibodies (50 μg/well) were incubated with gelled BMS (500 μg/well) in wells of 96-well plates for 60 min at 37° C. Unbound antibody was removed by three DME washes (200 μl/well) and then freshly isolated cells were added. Dose-response assays were performed on all antibodies. Laminin fragments and synthetic peptides (micromolar amount indicated on figures) were preincubated with freshly isolated type II alveolar cells in suspension for 30 min at 37° C. with gentle agitation every 5 min; cells together with fragment or peptide were then plated on BMS. Cell viability in the presence of each antibody, fragment, or synthetic peptide was accessed using the MTT (3-[4,5-dimethylthiazol-2-yl]-2,5-diphenyl tetrazolium bromide) assay (Chemicon International, Inc. Temecula, Calif.).

type II alveolar cells [3] = type: cell-based, rat
Method: as §2

type II alveolar cells [4] = assay: Cell adhesion studies, type II alveolar cells on coated plates (Example 1); type: cell-based, rat; conditions: coating 100 μM
Method: as §1

Molecule: O=C(O)CN(CCN(CC(=O)O)CC(=O)O)CC(=O)O [EDTA, reference compound]
Inhibition of HT1080 cell adhesion to SN-peptide ([1]; cells preincubated with inhibitor, coating and inhibitor 100 μM, EDTA 2 mM): inhibited

IC50 (type II alveolar cells [2]): 68 µM
Molecule: CC[C@H](C)[C@H](NC(=O)[C@@H](N)CO)C(=O)N[C@@H](CC(N)=O)C(=O)N[C@@H](CC(N)=O)C(=O)N[C@@H](CC(N)=O)C(=O)N[C@@H](CCCNC(=N)N)C(=O)O [SINNNR] (H-SINNNR-OH)

IC50 (type II alveolar cells [2]): 50 µM
Molecule: CC[C@H](C)[C@H](NC(=O)[C@H](CO)NC(=O)[C@H](Cc1c[nH]cn1)NC(=O)[C@H](Cc1c[nH]c2ccccc12)NC(=O)[C@H](CCCNC(=N)N)NC(=O)[C@H](CC(N)=O)NC(=O)[C@H](CC(N)=O)NC(=O)[C@H](CC(N)=O)NC(=O)[C@@H](NC(=O)[C@@H](N)CO)[C@@H](C)CC)C(=O)N[C@@H](Cc1ccc(O)cc1)C(=O)N[C@H](C(=O)N[C@H](C(=O)N[C@@H](CCCNC(=N)N)C(=O)N[C@@H](Cc1ccccc1)C(=O)NCC(=O)N[C@@H](CC(N)=O)C(=O)N[C@@H](CCSC)C(=O)NCC(=O)N[C@@H](CO)C(=O)O)[C@@H](C)O)[C@@H](C)CC [SN-peptide] (H-SINNNRWHSIYITRFGNMGS-OH)
Cell viability (type II alveolar cells [3]): 97±1%

Molecule: AASIKVAVSADR [peptide from mouse laminin A chain, antigen of ab-A[IK], reference compound]
Area (type II alveolar cells [2]): 98 ± 22 μm^2 × 10^3 | Inhibition of alveolar formation by soluble laminin fragment or peptide (type II alveolar cells [2]): no effect on alveolar formation

Molecule: AASVVIAKSADR [scrambled IKVAV control peptide, reference compound]
Area (type II alveolar cells [2]): 100 ± 18 μm^2 × 10^3 | Inhibition of alveolar formation by soluble laminin fragment or peptide (type II alveolar cells [2]): no effect on alveolar formation

Molecule: Collagen IV: Mouse collagen IV
Area (of cellular structures) (type II alveolar cells [2]): 0.4 ± 0.2 μm^2 × 10^3

Molecule: FGNMGS [carboxy-terminal 6-mer of SN-peptide from trypsin digestion]
Inhibition of alveolar formation by soluble laminin fragment or peptide (type II alveolar cells [2]): minimal

Molecule: KQNCLSSRASFRGCVRNLRLSR [reference compound]
Area (type II alveolar cells [2]): 110 ± 19 μm^2 × 10^3 | Inhibition of alveolar formation by soluble laminin fragment or peptide (type II alveolar cells [2]): no effect on alveolar formation

Molecule: Laminin: Mouse laminin, large cross-shaped cell adhesive heterotrimer
Area (of cellular structures) (type II alveolar cells [2]): 35 ± 3 μm^2 × 10^3 | Alveolar formation on substrate (type II alveolar cells [2]): alveoli formed only on laminin | Percent cell attachment ([1]; HT1080 cells, substrate coated at 35 μM, mean ± SD): 80 ± 0.02% | Adhesion of type II alveolar cells to coated substrate (type II alveolar cells [4]): Adhesion

Molecule: RGDS [functionally identical to RGDN, P1 fragment cell adhesion site, reference compound]
Area (type II alveolar cells [2]): 105 ± 24 μm^2 × 10^3 | Inhibition of alveolar formation by soluble laminin fragment or peptide (type II alveolar cells [2]): no effect on alveolar formation

Molecule: WHSIYITR [middle 8-mer of SN-peptide from trypsin digestion]
Inhibition of alveolar formation by soluble laminin fragment or peptide (type II alveolar cells [2]): partial

Molecule: collagen I: Rat tail collagen I, negative control substrate
Alveolar formation on substrate (type II alveolar cells [2]): completely ineffective

B1: Entactin: Mouse entactin purchased from Upstate Biotechnology (protein, UniProt P10493 29-1245, looked up)
Nidogen-1: LNRQELFPFGPGQGDLELEAGDDVVSPSLELIGELSFYDRTDITSVYVTTNGIIAMSEPPATEYHPGTFPPSFGSVAPFLADLDTTDGLGNVYYREDLSPFIIQMAAEYVQRGFPEVSFQPTSVVVVTWESVAPYGGPSSSPAEEGKRNTFQAVLASSNSSSYAIFLYPEDGLQFFTTFSKKDESQVPAVVGFSKGLVGFLWKSNGAYNIFANDRESIENLAKSSNAGHQGVWVFEIGSPATAKGVVSADVNLDLDDDGADYEDEDYDLVTSHLGLEDVATPSPSHSPRRGYPDPHNVPRILSPGYEATERPRGVPTERTRSFQLPAERFPQHHPQVIDVDEVEETGVVFSYNTGSQQTCANNRHQCSVHAECRDYATGFCCRCVANYTGNGRQCVAEGSPQRVNGKVKGRIFVGSSQVPVVFENTDLHSYVVMNHGRSYTAISTIPETVGYSLLPLAPIGGIIGWMFAVEQDGFKNGFSITGGEFTRQAEVTFLGHPGKLVLKQQFSGIDEHGHLTISTELEGRVPQIPYGASVHIEPYTELYHYSSSVITSSSTREYTVMEPDQDGAAPSHTHIYQWRQTITFQECAHDDARPALPSTQQLSVDSVFVLYNKEERILRYALSNSIGPVRDGSPDALQNPCYIGTHGCDSNAACRPGPGTQFTCECSIGFRGDGQTCYDIDECSEQPSRCGNHAVCNNLPGTFRCECVEGYHFSDRGTCVAAEDQRPINYCETGLHNCDIPQRAQCIYMGGSSYTCSCLPGFSGDGRACRDVDECQHSRCHPDAFCYNTPGSFTCQCKPGYQGDGFRCMPGEVSKTRCQLEREHILGAAGGADAQRPTLQGMFVPQCDEYGHYVPTQCHHSTGYCWCVDRDGRELEGSRTPPGMRPPCLSTVAPPIHQGPVVPTAVIPLPPGTHLLFAQTGKIERLPLERNTMKKTEAKAFLHIPAKVIIGLAFDCVDKVVYWTDISEPSIGRASLHGGEPTTIIRQDLGSPEGIALDHLGRTIFWTDSQLDRIEVAKMDGTQRRVLFDTGLVNPRGIVTDPVRGNLYWTDWNRDNPKIETSHMDGTNRRILAQDNLGLPNGLTFDAFSSQLCWVDAGTHRAECLNPAQPGRRKVLEGLQYPFAVTSYGKNLYYTDWKTNSVIAMDLAISKEMDTFHPHKQTRLYGITIALSQCPQGHNYCSVNNGGCTHLCLPTPGSRTCRCPDNTLGVDCIERK
Area (of cellular structures) (type II alveolar cells [2]): 1 ± 0.5 μm^2 × 10^3
